Source: the NIST ThermoML archive (doi:10.1021/je301103d)
Numbers after ± are expanded uncertainties.

What was measured:
[1] = 101.33 kPa, Liquid; for viscosity: Cone and plate viscometry; for mass density: Vibrating tube method; for electrical conductivity: conductivity meter (DDJS-308A)
[2] = refractive index (Na D-line) (dimensionless); settings: 101.33 kPa, Liquid, Standard Abbe refractometry

C[N+](C)(C)CCO.N[C@@H](CO)C(=O)[O-] [2-hydroxy-N,N,N-trimethylethanaminium L-serinate]
Settings	electrical conductivity, [1] [S/m]	mass density, [1] [kg/m3]	refractive index, [2]	viscosity, [1] [mPa·s]
293.15 K	–	–	1.5447 ± 0.0011	–
298.15 K	0.00093 ± 3e-05	1191.51 ± 2	1.5429 ± 0.0011	11544 ± 1700
303.15 K	0.00145 ± 4e-05	1188.65 ± 2	1.5416 ± 0.0011	6543.1 ± 930
308.15 K	0.00229 ± 7e-05	1185.79 ± 2	1.5408 ± 0.0011	3793.3 ± 520
313.15 K	0.00359 ± 0.00011	1182.9 ± 2	1.5397 ± 0.0011	2186.5 ± 290
318.15 K	0.00553 ± 0.00017	1179.92 ± 2	1.5388 ± 0.0011	1306 ± 160
323.15 K	0.00833 ± 0.00025	1176.87 ± 2	1.5382 ± 0.0011	811.5 ± 99
328.15 K	0.0122 ± 0.00037	1173.97 ± 2	1.5366 ± 0.0011	522.9 ± 62
333.15 K	0.0175 ± 0.00053	1171.2 ± 2	1.5349 ± 0.0011	346.6 ± 40
338.15 K	0.0266 ± 0.0008	1168.38 ± 2	1.5341 ± 0.0011	237.7 ± 27
343.15 K	0.037 ± 0.0011	1165.5 ± 2	1.5326 ± 0.0011	167.5 ± 19
348.15 K	0.0495 ± 0.0015	1162.54 ± 2	–	120.1 ± 13
353.15 K	0.0688 ± 0.0021	1159.37 ± 2	–	90.2 ± 10

C[N+](C)(C)CCO.NCCC(=O)[O-] [2-hydroxy-N,N,N-trimethylethanaminium β-alaninate]
Settings	electrical conductivity, [1] [S/m]	mass density, [1] [kg/m3]	refractive index, [2]	viscosity, [1] [mPa·s]
293.15 K	–	–	1.5322 ± 0.0011	–
298.15 K	0.00071 ± 2e-05	1120.29 ± 2	1.5313 ± 0.0011	5092.1 ± 710
303.15 K	0.00143 ± 4e-05	1117.51 ± 2	1.5306 ± 0.0011	3022.2 ± 400
308.15 K	0.00268 ± 8e-05	1114.55 ± 2	1.5294 ± 0.0011	1820.4 ± 230
313.15 K	0.00494 ± 0.00015	1111.77 ± 2	1.5285 ± 0.0011	1146.2 ± 140
318.15 K	0.00907 ± 0.00027	1108.98 ± 2	1.5277 ± 0.0011	723.2 ± 88
323.15 K	0.0134 ± 0.0004	1106.2 ± 2	1.5266 ± 0.0011	470.7 ± 56
328.15 K	0.0178 ± 0.00053	1103.43 ± 2	1.526 ± 0.0011	322.4 ± 37
333.15 K	0.0227 ± 0.00068	1100.63 ± 2	1.5249 ± 0.0011	220.7 ± 25
338.15 K	0.0295 ± 0.00089	1097.83 ± 2	1.5238 ± 0.0011	155.9 ± 18
343.15 K	0.0379 ± 0.0011	1095.04 ± 2	1.5225 ± 0.0011	112 ± 12
348.15 K	0.0496 ± 0.0015	1092.32 ± 2	–	79.3 ± 8.8
353.15 K	0.0615 ± 0.0019	1089.6 ± 2	–	56.7 ± 6.3
